Type in all cases: cell-based
The target in one data set is T1, hERG ion channel (Homo sapiens, UniProt Q12809).
T1 construct: expressed in transfected cells; host or cells: CHO K1
Nature of the data set: Population Patch Clamp (PPC) hERG assay in CHO K1 cells. The procedure:
Inhibition of the hERG channel was measured by automated patch clamp assay in CHO K1 cells, stably transfected with the hERG ion channel. PPC measurements were performed using an IonWorks Quattro instrument (Molecular Devices Corporation, Union City, CA) using a 384 well PatchPlate (Molecular Devices Corporation) with 64 apertures per well. Each concentration of test compound was tested in duplicate wells. Amphotericin B was used to obtain electrical access to the cell interior at a final concentration of 200 μg/mL. Human ether-à-gogo related gene (hERG) currents were measured with a prepulse to +40 mV (2 s) from the holding potential of −80 mV, followed by a step to −50 mV (2 s) to elicit the deactivating tail currents, before returning to the holding potential for 1s. Compounds were incubated for 600s between the pre- and post-compound reads. The external recording solution used was 130 mM Na Gluconate, 20 mM NaCl, 4 mM KCl, 1 mM MgCl2, 1.8 mM CaCl2, 10 mM Hepes, 5 mM Glucose, pH to 7.3 with NaOH. All data were filtered for seal quality, seal drop, and current amplitude. The maximum current amplitude of the 3rd pulse tail current was calculated before (Pre) and after (Post) compound addition and the amount of block assessed by dividing the Post-compound current amplitude by the Pre-compound current amplitude.

Data set [1] deals with T2, XIAP-Caspase-9 in HEK293-XIAP-Caspase-9 cells (Homo sapiens, UniProt P98170).
T2 construct: FLAG; expressed in transfected cells
Nature of the data set: HEK293-XIAP-Caspase-9 immunoprecipitation (IP) MSD assay. The conditions noted are these: compound 2 h at 37° C.; read-out: HEK293-X-C9 IP. The procedure:
Stable HEK293-XIAP-Caspase-9 cells were plated out into 96-well plates [200 μl/well at 1×10^6 cells/mL in cultured complete medium (DMEM+10% FBS+0.5 mg/mL Geneticin (Invitrogen)] and left overnight at 37° C. to recover. Compounds were added to duplicate wells in 0.1% DMSO for 2 h at 37° C. Cells were lysed in 50 μl 1×MSD lysis buffer (1% Triton X-100 in 20 mM Tris·Cl (pH 7.6), 150 mM NaCl including protease inhibitors) for 20 min rocking at room temperature. Streptavidin high bind MSD plate (L15SB-2) were coated with biotinylated anti-FLAG M2 antibody (Sigma F9291) at 25 μl/well with a 5 μg/mL dilution of antibody in PBS for 1 h, shaking; followed by blocking for 1 h with 150 μl 3% BSA/TBST. Cell lysate (25 μl) was added to the 96-well anti-FLAG coated MSD plate and placed on shaker for 4 h at room temperature. […] Plates were washed 4 times with 150 μl TBST, and 150 μl/well 1×MSD read buffer (R92TC-2) added before reading each plate.
EC50 values were determined from dose-response plots using nonlinear least-squares analysis.

Data set [2] concerns EVSA-T (human breast carcinoma). Kind of data set: Anti-proliferative activity, Alamar Blue assay, EVSA-T. To be noted: 72 hours compound, read-out: EVSA-T prolif. The procedure:
The method is based on the ability of viable cells to reduce resazurin to its fluorescent product resorufin. For each proliferation assay cells are plated onto 96 well plates and allowed to recover for 16 hours prior to the addition of inhibitor compounds (in 0.1% DMSO v/v) for a further 72 hours.
The anti-proliferative activities of compounds of the invention can be determined by measuring the ability of the compounds to inhibit growth in 3 cancer cell lines: • EVSA-T (human breast carcinoma) DSMZ cat. no.

Values joined by “and” are separate entries in the source; they are usually repeats but may differ in a detail not shown here. Identical values can stand only once. Counter-ions that a name gives are not always drawn. Like-named read-outs stand apart in the source and are kept apart here.

T1 sequence (Q12809 whole entry): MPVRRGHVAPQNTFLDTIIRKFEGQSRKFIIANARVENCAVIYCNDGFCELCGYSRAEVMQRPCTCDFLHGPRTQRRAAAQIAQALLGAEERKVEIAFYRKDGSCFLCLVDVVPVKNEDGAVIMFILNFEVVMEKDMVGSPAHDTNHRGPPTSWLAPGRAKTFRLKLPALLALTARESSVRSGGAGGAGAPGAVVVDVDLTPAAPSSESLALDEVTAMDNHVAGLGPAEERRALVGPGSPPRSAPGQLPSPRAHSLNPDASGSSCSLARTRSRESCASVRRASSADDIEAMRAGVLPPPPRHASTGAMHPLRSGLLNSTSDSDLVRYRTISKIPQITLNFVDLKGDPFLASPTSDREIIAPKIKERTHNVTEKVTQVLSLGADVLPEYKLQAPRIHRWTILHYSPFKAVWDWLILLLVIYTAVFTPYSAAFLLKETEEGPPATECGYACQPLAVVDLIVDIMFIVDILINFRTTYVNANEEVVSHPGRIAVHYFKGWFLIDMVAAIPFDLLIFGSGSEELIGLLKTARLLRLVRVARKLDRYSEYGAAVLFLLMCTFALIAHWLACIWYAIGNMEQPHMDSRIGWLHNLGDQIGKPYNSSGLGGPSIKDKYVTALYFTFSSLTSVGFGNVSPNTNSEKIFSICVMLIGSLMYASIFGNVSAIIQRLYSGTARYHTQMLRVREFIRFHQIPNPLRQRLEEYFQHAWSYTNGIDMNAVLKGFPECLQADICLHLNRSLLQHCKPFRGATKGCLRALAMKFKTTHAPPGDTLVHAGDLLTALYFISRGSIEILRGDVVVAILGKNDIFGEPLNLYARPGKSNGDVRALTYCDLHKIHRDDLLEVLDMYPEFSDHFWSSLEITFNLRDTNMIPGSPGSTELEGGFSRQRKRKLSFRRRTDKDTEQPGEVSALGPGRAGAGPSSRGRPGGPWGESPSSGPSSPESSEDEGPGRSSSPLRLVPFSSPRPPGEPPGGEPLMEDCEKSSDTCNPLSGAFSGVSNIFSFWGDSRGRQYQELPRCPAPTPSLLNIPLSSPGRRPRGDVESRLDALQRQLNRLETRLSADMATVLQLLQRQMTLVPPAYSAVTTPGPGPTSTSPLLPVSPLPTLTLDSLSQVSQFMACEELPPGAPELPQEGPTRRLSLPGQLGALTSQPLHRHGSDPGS
T2 sequence (P98170 whole entry): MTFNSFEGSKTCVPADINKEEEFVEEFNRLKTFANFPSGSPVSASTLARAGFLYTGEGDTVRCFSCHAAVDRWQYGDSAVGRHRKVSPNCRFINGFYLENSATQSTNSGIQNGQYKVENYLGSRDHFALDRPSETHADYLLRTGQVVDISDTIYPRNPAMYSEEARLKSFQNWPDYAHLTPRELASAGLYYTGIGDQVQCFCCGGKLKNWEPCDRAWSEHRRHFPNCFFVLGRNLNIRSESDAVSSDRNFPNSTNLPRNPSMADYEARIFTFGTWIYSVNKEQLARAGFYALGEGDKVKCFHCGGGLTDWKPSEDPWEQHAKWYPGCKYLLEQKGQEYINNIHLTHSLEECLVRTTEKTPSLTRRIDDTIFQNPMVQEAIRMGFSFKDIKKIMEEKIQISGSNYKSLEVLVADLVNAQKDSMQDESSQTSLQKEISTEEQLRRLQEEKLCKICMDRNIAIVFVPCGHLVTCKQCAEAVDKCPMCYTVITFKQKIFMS

For `C[C@@H]1CN(CC(=O)N2CC(C)(C)c3c2cc(Cc2ccc(F)cc2F)c(=O)n3C)[C@@H](CN2CCOC[C@H]2C)CN1` [Example 19, 6-[(2,4-Difluorophenyl)methyl]-3,3,4-trimethyl-1-{2-[(2R,5R)-5-methyl-2-{[(3R)-3-methylmorpholin-4-yl]methyl}piperazin-1-yl]acetyl}-1H,2H,3H,4H,5H-pyrrolo[3,2-b]pyridin-5-one dihydrochloride], the “hERG PPC (PI)” value at hERG ion channel (@ 100 μM) is 42% @ 100. Further, in data set [1], the EC50 was 1.2 nM.

In the case of `COC(CO)c1nc2c(cc1Cc1ccc(F)cc1)N(C(=O)CN1C[C@@H](C)NC[C@@H]1CN1CCOC[C@H]1C)CC2(C)C` (single isomer, unassigned) [Example 29, 1-{6-[(4-Fluorophenyl)methyl]-5-((R or S)-2-hydroxy-1-methoxyethyl)-3,3-dimethyl-1H,2H,3H-pyrrolo[3,2-b]pyridin-1-yl}-2-[(2R,5R)-5-methyl-2-{[(3R)-3-methylmorpholin-4-yl]methyl}piperazin-1-yl] ethan-1-one], the “hERG PPC (PI)” value at hERG ion channel (@ 500 μM) is recorded as 53% @ 500. Besides, the EC50 in data set [1] is 13 nM.

For `CCCCc1cc2c([nH]c1=O)C(C)(C)CN2C(=O)CN1C[C@@H](C)NC[C@@H]1CN1[C@H](C)COC[C@H]1C` [Example 32, 6-Butyl-1-{2-[(2R,5R)-2-{[(3R,5R)-3,5-dimethylmorpholin-4-yl]methyl}-5-methylpiperazin-1-yl]acetyl}-3,3-dimethyl-1H,2H,3H,4H,5H-pyrrolo[3,2-b]pyridin-5-one dihydrochloride], on hERG ion channel (@ 500 μM), the “hERG PPC (PI)” value came out at 55% @ 500. Also, in data set [1], the EC50 came out at 1.5 nM.

As to `C[C@@H]1CN(CC(=O)N2CC(C)(C)c3[nH]c(=O)c(Cc4ccc(F)cc4F)cc32)[C@@H](CN2[C@H](C)COC[C@H]2C)CN1` [Example 7, 6-[(2,4-Difluorophenyl)methyl]-1-{2-[(2R,5R)-2-{[(3R,5R)-3,5-dimethylmorpholin-4-yl]methyl}-5-methylpiperazin-1-yl]acetyl}-3,3-dimethyl-1H,2H,3H,4H,5H-pyrrolo[3,2-b]pyridin-5-one dihydrochloride], at hERG ion channel (@ 100 μM), the “hERG PPC (PI)” value turned out to be 33% @ 100. Moreover, the EC50 in data set [1] was determined as 1.2 nM.

As to `C[C@@H]1CN(CC(=O)N2CC(C)(C)c3cc(=O)n(Cc4ccc(F)cc4)cc32)[C@@H](CN2CCOC[C@H]2C)CN1` [Example 17, 6-[(4-Fluorophenyl)methyl]-3,3-dimethyl-1-{2-[(2R,5R)-5-methyl-2-{[(3R)-3-methylmorpholin-4-yl]methyl}piperazin-1-yl]acetyl}-1H,2H,3H,5H,6H-pyrrolo[2,3-c]pyridin-5-one dihydrochloride], the “hERG PPC (PI)” value on hERG ion channel (@ 300 μM) is given as 59% @ 300. Also, the EC50 in data set [1] came to 28 nM.

For the compound `COCC(O)c1nc2c(cc1Cc1ccc(F)cc1)N(C(=O)CN1C[C@@H](C)NC[C@@H]1CN1CCOC[C@H]1C)CC2(C)C` (single isomer, unassigned) [Example 26, 1-{6-[(4-Fluorophenyl)methyl]-5-((R or S)-1-hydroxy-2-methoxyethyl)-3,3-dimethyl-1H,2H,3H-pyrrolo[3,2-b]pyridin-1-yl}-2-[(2R,5R)-5-methyl-2-{[(3R)-3-methylmorpholin-4-yl]methyl}piperazin-1-yl] ethan-1-one trihydrochloride], on hERG ion channel (@ 31.3 μM), the “hERG PPC (PI)” value was 41% @ 31.3. The EC50 in data set [1] worked out at 12 nM.

`COC(CO)c1nc2c(cc1Cc1ccc(F)cc1)N(C(=O)CN1C[C@@H](C)NC[C@@H]1CN1CCOC[C@H]1C)CC2(C)C` (single isomer, unassigned) [Example 27, 1-{6-[(4-Fluorophenyl)methyl]-5-((R or S)-2-hydroxy-1-methoxyethyl)-3,3-dimethyl-1H,2H,3H-pyrrolo[3,2-b]pyridin-1-yl}-2-[(2R,5R)-5-methyl-2-{[(3R)-3-methylmorpholin-4-yl]methyl}piperazin-1-yl] ethan-1-one trihydrochloride]: at hERG ion channel (@ 1000 μM), the “hERG PPC (PI)” value came out at 55% @ 1000. In addition, the EC50 in data set [1] is 6 nM and 9.9 nM.

As for `C[C@@H]1CN(CC(=O)N2CC(C)(C)c3c2cc(Cc2ccc(F)cc2)c(=O)n3C)[C@@H](CN2C[C@H](C)OC[C@H]2C)CN1` [Example 18, 1-{2-[(2R,5R)-2-{[(2S,5R)-2,5-Dimethylmorpholin-4-yl]methyl}-5-methylpiperazin-1-yl]acetyl}-6-[(4-fluorophenyl)methyl]-3,3,4-trimethyl-1H,2H,3H,4H,5H-pyrrolo[3,2-b]pyridin-5-one trihydrochloride], at hERG ion channel (@ 75 μM), the “hERG PPC (PI)” value stood at 44% @ 75. Moreover, the EC50 in data set [1] came out at 1.2 nM.

For the compound `C[C@@H]1CN(CC(=O)N2CC(C)(C)c3c2cc(Cc2ccc(F)cc2)c(=O)n3C)[C@@H](CN2CCOC[C@H]2C)CN1` [Example 6, 6-[(4-Fluorophenyl)methyl]-3,3,4-trimethyl-1-{2-[(2R,5R)-5-methyl-2-{[(3R)-3-methylmorpholin-4-yl]methyl}piperazin-1-yl]acetyl}-1H,2H,3H,4H,5H-pyrrolo[3,2-b]pyridin-5-one dihydrochloride], on hERG ion channel (@ 250 μM), the “hERG PPC (PI)” value came to 56% @ 250. For the same compound, the EC50 in data set [1] came to 2 nM.

For the compound `C[C@@H]1CN(CC(=O)N2CC(C)(C)c3[nH]c(=O)c(Cc4ccc(F)cc4)cc32)[C@@H](CN2CCOC[C@H]2C)CN1` [Example 5, 6-[(4-Fluorophenyl)methyl]-3,3-dimethyl-1-{2-[(2R,5R)-5-methyl-2-{[(3R)-3-methylmorpholin-4-yl]methyl}piperazin-1-yl]acetyl}-1H,2H,3H,4H,5H-pyrrolo[3,2-b]pyridin-5-one dihydrochloride], the “hERG PPC (PI)” value on hERG ion channel (@ 300 μM) is given as 42% @ 300. The EC50 in data set [1] is 5.3 nM.

`C[C@@H]1CN(CC(=O)N2CC(C)(C)c3nc(CO)c(Cc4cccc(F)c4)cc32)[C@@H](CN2CCOC[C@H]2C)CN1` [Example 15, 1-{6-[(3-Fluorophenyl)methyl]-5-(hydroxymethyl)-3,3-dimethyl-1H,2H,3H-pyrrolo[3,2-b]pyridin-1-yl}-2-[(2R,5R)-5-methyl-2-{[(3R)-3-methylmorpholin-4-yl]methyl}piperazin-1-yl]ethan-1-one dihydrochloride]: the EC50 is 7.8 nM in data set [2] (dihydrochloride); below 10 nM in data set [2] (Homo sapiens, EVSA-T, 72 h); 4.9 nM in data set [1]. Besides, the “hERG PPC (PI)” value on hERG ion channel (@ 100 μM) is recorded as 55% @ 100.

On to `CCCCc1cc2c(nc1CO)C(C)(C)CN2C(=O)CN1C[C@@H](C)NC[C@@H]1CN1[C@H](C)COC[C@H]1C` [Example 34, 1-[6-Butyl-5-(hydroxymethyl)-3,3-dimethyl-1H,2H,3H-pyrrolo[3,2-b]pyridin-1-yl]-2-[(2R,5R)-2-{[(3R,5R)-3,5-dimethylmorpholin-4-yl]methyl}-5-methylpiperazin-1-yl] ethan-1-one dihydrochloride], for which, on hERG ion channel (CHO K1 cells stably transfected with hERG), inhibition was half-maximal at 55000 nM (IC50). For the same compound, the EC50 in data set [1] worked out at 3.8 nM.

Consider `C[C@@H]1CN(CC(=O)N2CC(C)(C)c3cc(=O)n(Cc4ccc(F)cc4F)cc32)[C@@H](CN2C[C@H](C)OC[C@H]2C)CN1.Cl.Cl` [Example 22, 6-[(2,4-Difluorophenyl)methyl]-1-{2-[(2R,5R)-2-{[(2S,5R)-2,5-dimethylmorpholin-4-yl]methyl}-5-methylpiperazin-1-yl]acetyl}-3,3-dimethyl-1H,2H,3H,5H,6H-pyrrolo[2,3-c]pyridin-5-one dihydrochloride], for which the “hERG PPC (PI)” value at hERG ion channel (@ 100 μM) stood at 47% @ 100. In addition, in data set [1], the EC50 was 3.9 nM.

For `C[C@@H]1CN(CC(=O)N2CC(C)(C)c3c2cc(Cc2ccc(F)cc2)c(=O)n3N)[C@@H](CN2CCOC[C@H]2C)CN1` [Example 24, 4-Amino-6-[(4-fluorophenyl)methyl]-3,3-dimethyl-1-{2-[(2R,5R)-5-methyl-2-{[(3R)-3-methylmorpholin-4-yl]methyl}piperazin-1-yl]acetyl}-1H,2H,3H,4H,5H-pyrrolo[3,2-b]pyridin-5-one dihydrochloride], the “hERG PPC (PI)” value at hERG ion channel (@ 100 μM) is reported as 40% @ 100. Moreover, the EC50 in data set [1] was 0.58 nM and 1.1 nM.

These data come from patent publication US12202828B2, “Bicyclic heterocycle compounds and their uses in therapy” (ASTEX THERAPEUTICS LIMITED, priority 2013, dated 2025).
